Where two headings read alike, the source gives them in different places.

One experiment addresses T1, NAMPT (Homo sapiens, UniProt P43490).
T1 construct: His tag; host or cells: E. coli
Nature of the experiment: Biochemical inhibition assay: NAMPT enzymatic reaction, NMN quantified by mass spectrometry. Particulars: read-out: Biochem IC50. The method, boiled down:
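Inhibition of E. coli-expressed His-tagged human NAMPT, measured as NMN formation by mass spectrometry after a 30 min room-temperature reaction containing 1 μM NAM, 100 μM PRPP and 2.5 mM ATP.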

The next experiment deals with A2780 cells. Nature of the experiment: In-vitro cell proliferation assay (SRB), A2780 cells. Type of experiment: cell-based. The settings on record: Homo sapiens, A2780, 72 h, A2780 cells, 72 hours, read-out: A2780 IC50. The method, boiled down:
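Read-out is SRB absorbance at 570 nm on TCA-fixed cells after 72 hours of compound treatment at 37° C. in 5% CO2. Background from a media-only plate is subtracted, and % inhibition is interpolated between two tested concentrations.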

T1 sequence (P43490 whole entry): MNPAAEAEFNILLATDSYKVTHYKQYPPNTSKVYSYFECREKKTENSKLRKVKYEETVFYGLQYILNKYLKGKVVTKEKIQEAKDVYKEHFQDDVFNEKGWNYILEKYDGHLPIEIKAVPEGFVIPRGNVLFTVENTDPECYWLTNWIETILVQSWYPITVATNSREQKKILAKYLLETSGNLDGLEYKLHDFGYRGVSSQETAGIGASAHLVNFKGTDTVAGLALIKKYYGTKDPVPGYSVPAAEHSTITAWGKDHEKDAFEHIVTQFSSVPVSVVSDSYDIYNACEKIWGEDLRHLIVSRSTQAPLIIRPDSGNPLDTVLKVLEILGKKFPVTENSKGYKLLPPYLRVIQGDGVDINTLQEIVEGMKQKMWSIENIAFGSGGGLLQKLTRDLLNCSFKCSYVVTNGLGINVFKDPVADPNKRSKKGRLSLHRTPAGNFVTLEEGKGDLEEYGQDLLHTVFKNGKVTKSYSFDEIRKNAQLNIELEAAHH

For the compound `Cc1nc(S(=O)(=O)c2ccc(CNC(=O)c3cnc4nccn4c3)cc2)cs1` [N-{[4-(2-methyl-1,3-thiazole-4-sulfonyl)phenyl]methyl}imidazo[1,2-a]pyrimidine-6-carboxamide], the IC50 on NAMPT (NAMPT enzymatic assay) is 28.6 nM; with A2780 cells (SRB), 1000 to 10000 nM.

`Cn1cc2cc(S(=O)(=O)c3ccc(CNC(=O)c4ccc5nccn5c4)cc3)ccc2n1` [N-{[4-(2-methyl-2H-indazole-5-sulfonyl)phenyl]methyl}imidazo[1,2-a]pyridine-6-carboxamide]: the IC50 came out at 13.3 nM on NAMPT (NAMPT enzymatic assay) and 5.8 nM in the experiment with A2780 cells (SRB).

For the compound `Cn1cc2cc(S(=O)(=O)c3ccc(CNC(=O)c4cnc5nccn5c4)cc3)ccc2n1` [N-{[4-(2-methyl-2H-indazole-5-sulfonyl)phenyl]methyl}imidazo[1,2-a]pyrimidine-6-carboxamide], the IC50 at NAMPT (NAMPT enzymatic assay) is 1.2 nM; in the experiment on A2780 cells (SRB), 8.2 nM.

In the case of `Cn1cc2cc(S(=O)(=O)c3ccc(CNC(=O)c4cc5ccncc5s4)cc3)ccc2n1` [N-{[4-(2-methyl-2H-indazole-5-sulfonyl)phenyl]methyl}thieno[2,3-c]pyridine-2-carboxamide], the IC50 on NAMPT (NAMPT enzymatic assay) stood at 5.5 nM; in the experiment on A2780 cells (SRB), 3.3 nM.

For the compound `Cn1cc2ccc(S(=O)(=O)c3ccc(CNC(=O)c4cc5ccncc5o4)cc3)cc2n1` [N-{[4-(2-methyl-2H-indazole-6-sulfonyl)phenyl]methyl}furo[2,3-c]pyridine-2-carboxamide], the IC50 is 3.4 nM at NAMPT (NAMPT enzymatic assay) and 2.8 nM in the experiment on A2780 cells (SRB).

Regarding `Cn1cc2ccc(S(=O)(=O)c3ccc(CNC(=O)c4ccc5nccn5c4)cc3)cc2n1` [N-{[4-(2-methyl-2H-indazole-6-sulfonyl)phenyl]methyl}imidazo[1,2-a]pyridine-6-carboxamide], the IC50 at NAMPT (NAMPT enzymatic assay) was determined as 1.9 nM; in the experiment with A2780 cells (SRB), 1.7 nM.

Regarding `Cn1cc2ccc(S(=O)(=O)c3ccc(CNC(=O)c4cnc5nccn5c4)cc3)cc2n1` [N-{[4-(2-methyl-2H-indazole-6-sulfonyl)phenyl]methyl}imidazo[1,2-a]pyrimidine-6-carboxamide], the IC50 on NAMPT (NAMPT enzymatic assay) is 1.2 nM; in the experiment with A2780 cells (SRB), 6.1 nM.

Consider `Cn1cc2ccc(S(=O)(=O)c3ccc(CNC(=O)c4cc5ccncc5s4)cc3)cc2n1` [N-{[4-(2-methyl-2H-indazole-6-sulfonyl)phenyl]methyl}thieno[2,3-c]pyridine-2-carboxamide], for which the half-inhibitory concentration (IC50) at NAMPT (NAMPT enzymatic assay) was determined as 1.4 nM; in the experiment on A2780 cells (SRB), 1.5 nM.

Take `Cc1ncccc1S(=O)(=O)c1ccc(CNC(=O)c2cnc3[nH]ncc3c2)cc1` [N-{[4-(2-methylpyridine-3-sulfonyl)phenyl]methyl}-1H-pyrazolo[3,4-b]pyridine-5-carboxamide]: the IC50 amounted to 105 nM on NAMPT (NAMPT enzymatic assay) and 136 nM with A2780 cells (SRB).

As to `Cc1ncccc1S(=O)(=O)c1ccc(CNC(=O)c2cc3cnccc3[nH]2)cc1` [N-{[4-(2-methylpyridine-3-sulfonyl)phenyl]methyl}-1H-pyrrolo[3,2-c]pyridine-2-carboxamide], the IC50 is 180 nM on NAMPT (NAMPT enzymatic assay) and 24 nM with A2780 cells (SRB).

Regarding `Cc1ncccc1S(=O)(=O)c1ccc(CNC(=O)c2cnc3nccn3c2)cc1` [N-{[4-(2-methylpyridine-3-sulfonyl)phenyl]methyl}imidazo[1,2-a]pyrimidine-6-carboxamide], the IC50 is 20.8 nM at NAMPT (NAMPT enzymatic assay) and 100 to 1000 nM in the experiment on A2780 cells (SRB).

For the compound `Cc1ncccc1S(=O)(=O)c1ccc(CNC(=O)c2cc3ccncc3s2)cc1` [N-{[4-(2-methylpyridine-3-sulfonyl)phenyl]methyl}thieno[2,3-c]pyridine-2-carboxamide], the IC50 was 15.4 nM at NAMPT (NAMPT enzymatic assay) and 11.9 nM in the experiment on A2780 cells (SRB).

In the case of `O=C(NCc1ccc(S(=O)(=O)c2cccc3c2OCO3)cc1)c1cnc2[nH]ncc2c1` [N-{[4-(2H-1,3-benzodioxole-4-sulfonyl)phenyl]methyl}-1H-pyrazolo[3,4-b]pyridine-5-carboxamide], the IC50 on NAMPT (NAMPT enzymatic assay) came to 47 nM; in the experiment on A2780 cells (SRB) it was 88.4 nM.

As for `O=C(NCc1ccc(S(=O)(=O)c2cccc3c2OCO3)cc1)c1cc2cnccc2[nH]1` [N-{[4-(2H-1,3-benzodioxole-4-sulfonyl)phenyl]methyl}-1H-pyrrolo[3,2-c]pyridine-2-carboxamide], the IC50 at NAMPT (NAMPT enzymatic assay) stood at 20.5 nM; in the experiment with A2780 cells (SRB), 11.8 nM.

Consider `O=C(NCc1ccc(S(=O)(=O)c2cccc3c2OCO3)cc1)c1cc2ccncc2o1` [N-{[4-(2H-1,3-benzodioxole-4-sulfonyl)phenyl]methyl}furo[2,3-c]pyridine-2-carboxamide], for which the IC50 on NAMPT (NAMPT enzymatic assay) is 25.8 nM; in the experiment on A2780 cells (SRB) it was 26.6 nM.

For `O=C(NCc1ccc(S(=O)(=O)c2cccc3c2OCO3)cc1)c1ccc2nccn2c1` [N-{[4-(2H-1,3-benzodioxole-4-sulfonyl)phenyl]methyl}imidazo[1,2-a]pyridine-6-carboxamide], the values for the IC50 at NAMPT (NAMPT enzymatic assay) and in the experiment on A2780 cells (SRB) were 7.1 nM and 13 nM, respectively.

For `O=C(NCc1ccc(S(=O)(=O)c2cccc3c2OCO3)cc1)c1cnc2nccn2c1` [N-{[4-(2H-1,3-benzodioxole-4-sulfonyl)phenyl]methyl}imidazo[1,2-a]pyrimidine-6-carboxamide], the half-inhibitory concentration (IC50) at NAMPT (NAMPT enzymatic assay) is 2.9 nM; in the experiment with A2780 cells (SRB) it was 93.3 nM.

On to `O=C(NCc1ccc(S(=O)(=O)c2cccc3c2OCO3)cc1)c1cc2ccncc2s1` [N-{[4-(2H-1,3-benzodioxole-4-sulfonyl)phenyl]methyl}thieno[2,3-c]pyridine-2-carboxamide], for which the figures for the IC50 on NAMPT (NAMPT enzymatic assay) and with A2780 cells (SRB) were 3.3 nM and 7.2 nM, respectively.

`O=C(NCc1ccc(S(=O)(=O)c2ccc3c(c2)OCO3)cc1)c1cnc2[nH]ncc2c1` [N-{[4-(2H-1,3-benzodioxole-5-sulfonyl)phenyl]methyl}-1H-pyrazolo[3,4-b]pyridine-5-carboxamide]: the IC50 on NAMPT (NAMPT enzymatic assay) is 48.2 nM; with A2780 cells (SRB), 7.4 nM.

Turning to `O=C(NCc1ccc(S(=O)(=O)c2ccc3c(c2)OCO3)cc1)c1cc2cnccc2[nH]1` [N-{[4-(2H-1,3-benzodioxole-5-sulfonyl)phenyl]methyl}-1H-pyrrolo[3,2-c]pyridine-2-carboxamide], the IC50 at NAMPT (NAMPT enzymatic reaction) amounted to 8 nM; with A2780 cells (SRB assay) it was 7 nM.

For `O=C(NCc1ccc(S(=O)(=O)c2ccc3c(c2)OCO3)cc1)c1cc2ccncc2o1` [N-{[4-(2H-1,3-benzodioxole-5-sulfonyl)phenyl]methyl}furo[2,3-c]pyridine-2-carboxamide], the IC50 at NAMPT (NAMPT enzymatic assay) was found to be 5.3 nM; with A2780 cells (SRB), 8.7 nM.

For the compound `O=C(NCc1ccc(S(=O)(=O)c2ccc3c(c2)OCO3)cc1)c1ccc2nccn2c1` [N-{[4-(2H-1,3-benzodioxole-5-sulfonyl)phenyl]methyl}imidazo[1,2-a]pyridine-6-carboxamide], the figures for the IC50 on NAMPT (NAMPT enzymatic assay) and with A2780 cells (SRB) were 10.7 nM and 5.33 nM, respectively.

Consider `O=C(NCc1ccc(S(=O)(=O)c2ccc3c(c2)OCO3)cc1)c1cnc2nccn2c1` [N-{[4-(2H-1,3-benzodioxole-5-sulfonyl)phenyl]methyl}imidazo[1,2-a]pyrimidine-6-carboxamide], for which the IC50 turned out to be 3 nM on NAMPT (NAMPT enzymatic assay) and 11.7 nM in the experiment with A2780 cells (SRB).

For `O=C(NCc1ccc(S(=O)(=O)c2ccc3c(c2)OCO3)cc1)c1cc2ccncc2s1` [N-{[4-(2H-1,3-benzodioxole-5-sulfonyl)phenyl]methyl}thieno[2,3-c]pyridine-2-carboxamide], the half-inhibitory concentration (IC50) at NAMPT (NAMPT enzymatic reaction) came to 3 nM; with A2780 cells (SRB assay), 2.5 nM.

As to `Cc1ccnc(S(=O)(=O)c2ccc(CNC(=O)c3cc4ccncc4o3)cc2)c1` [N-{[4-(4-methylpyridine-2-sulfonyl)phenyl]methyl}furo[2,3-c]pyridine-2-carboxamide], the IC50 at NAMPT (NAMPT enzymatic assay) is 19.2 nM; with A2780 cells (SRB), 11.4 nM.

By IC50 is commonly meant the concentration that gives 50% inhibition.

Source of the values: patent US12336981B2, “Compounds and compositions for the inhibition of NAMPT” (Valo Health, Inc., priority 2010, dated 2025).
